Reference: patent publication US11066406B2, “Small molecule inhibitors of the JAK family of kinases” (Janssen Pharmaceutica NV, priority 2018, dated 2021)
“And” between values parts separate entries of the source, which are not always exact repeats. Equal entries are not always repeated. Marks after values point to notes of the source that are not given here.

Tests used:
[1] = In vivo p.o. dosing (Protocols 1 and 2): plasma and colon concentrations; design: species or system C57BL/6 mice; details: mice, 25 mg/kg p.o. in 20% HPβCD; for Plasma Concentration After p.o. Dosing, Time = 0.5 h, Mean: 0.5 h post dose; for Plasma Concentration After p.o. Dosing, Time = 2 h, Mean: 2 h post dose; for Plasma Concentration After p.o. Dosing, Time = 4 h, Mean: 4 h post dose; for Colon Concentration After p.o. Dosing, Time = 4 h, Mean: colon 4 h post dose
Method: These protocols are described below under the heading In vivo Studies.
(§1) Three non-fasted female C57BL/6 mice were orally administered test compound at a dose of 25 mg/kg p.o. as a solution in 20% hydroxypropyl-beta-cyclodextrin (HPβCD) at a dose volume of 5 mL/kg. Blood samples were collected at 0.5, 2, and 4 h post dose via retro-orbital bleed or venipuncture of the dorsal metatarsal vein. Blood samples were collected into tubes containing anticoagulant (Heparin-Na) and placed on wet ice. The plasma fraction was separated by centrifugation and frozen at −20° C. for up to 4 h and −80° C. after 4 h unless analyzed shortly after sample collection. Colon samples were collected at 4 h post dose. From the beginning of the cecum, a 4-6 cm sample of the colon was dissected, cut open on the longitudinal axis, and the solid contents removed by flushing with 2 mL of saline. The colon was further washed by putting it in 5 mL of saline and shaken for 5 seconds. The colon sample was then patted dry, weighed, and homogenized as 1 part tissue (g) to 4 parts HPLC grade water (mL). Concentrations of the compound in plasma and colon homogenate were determined using a qualified liquid chromatography-triple quadrupole mass spectrometry (LC-MS/MS) method.
as §1, with “HPβCD” for “hydroxypropyl-beta-cyclodextrin (HPβCD)”, “or” for “or venipuncture of the”, “2 cm below” for “the beginning of”, “4” for “4-6”

[2] = In vivo intracolonic (i.c.) dosing (Protocol 3): plasma and colon concentrations; design: species or system C57BL/6 mice; details: mice, 5 mg/kg intracolonic in 20% HPβCD; for Plasma Concentration After i.c. Dosing, Time = 2 h, Mean: 2 h post dose; for Plasma Concentration After i.c. Dosing, Time = 4 h, Mean: 4 h post dose
Source text: Plasma and colon concentration results were obtained by following Protocol 1 using venipuncture of dorsal metatarsal vein bleed for Compounds (B), (C), and Examples 6 and 11. Plasma and colon concentration results were obtained by following Protocol 2 using retro-orbital bleed for Compounds (A), and Examples 1, and 3-5 and Protocol 2 using venipuncture of the dorsal metatarsal vein for Examples 2, 7-10, and 12. Plasma and colon concentration results were obtained by following Protocol 3 for Examples 1, 3 and 4. These protocols are described below under the heading In vivo Studies.
Intracolonic (IC) dose group: Following anesthesia with isoflurane by inhalation, three non-fasted female C57BL/6 mice were administered the compound intracolonically through a small incision in the abdominal wall using a syringe and needle at a dose of 5 mg/kg as a solution in 20% HPβCD at a dose volume of 1 mL/kg. Blood samples were collected at 0.5, 2, and 4 h post dose via retro-orbital bleed. Blood samples were collected into tubes containing anticoagulant (Heparin-Na) and placed on wet ice. The plasma fraction was separated by centrifugation and frozen at −20° C. for up to 4 h and −80° C. after 4 h unless analyzed shortly after sample collection. Colon samples were collected at 4 h post dose. From 2 cm below the cecum, a 4-cm sample of the colon was dissected, cut open on the longitudinal axis, and the solid contents removed by flushing with 2 mL of saline. The colon was further washed by putting it in 5 mL of saline and shaken for 5 seconds. The colon sample was then patted dry, weighed, and homogenized as 1 part tissue (g) to 4 parts HPLC grade water (mL). Concentrations of the compound in plasma and colon homogenate were determined using a qualified liquid chromatography-triple quadrupole mass spectrometry (LC-MS/MS) method. This protocol was used to evaluate IC dosing of the following test compounds: Examples 1, 3, and 4.

[3] = tested on: MDCK-MDR1 cell line; experiment: MDCK-MDR1 permeability assay; type: in vitro ADME; details: apical-to-basolateral, with P-gp inhibitor elacridar (2 μM), 60 min
Method: Permeability measurements were conducted according to the Cyprotex protocol using the MDCK-MDR1 cell line obtained from the NIH (Rockville, Md., USA). […] The cells in this assay form a cohesive sheet of a single cell layer filing the surface area of the culture dish, also known as a confluent monolayer, and on day four the test compound was added to the apical side of the membrane and the transport of the compound across the monolayer was monitored over a time period of 60 min.
Test compounds were dissolved in DMSO at a concentration of 10 mM. The dosing solutions were prepared by diluting test compound with assay buffer (Hanks Balanced Salt Solution), pH 7.4, at a final concentration of 5 μM. For assessment of apical to basolateral (“A-B”) permeability, buffer was removed from the apical compartment and replaced with test compound dosing solution with or without the permeability glycoprotein (“PgP”, “P-gP”, “Pgp” or “P-gp”) inhibitor elacridar (2 μM). For assessment of basolateral to apical (“B-A”) permeability, buffer was removed from the companion plate and replaced with test compound dosing solution. Incubations were carried out in duplicate at 37° C. in an atmosphere of 5% CO2 with a relative humidity of 95%. Each assay included the reference markers propranolol (high permeability) and prazosin (PgP substrate). After incubation for 60 minutes, apical and basolateral samples were diluted and test compounds quantified by LC/MS/MS using an 8-point calibration in the range 0.0039 to 3 μM with appropriate dilution of the samples (receiver dilution factor=1; donor and Co dilution factor=10). The permeability coefficient (Papp) for each compound was calculated from the following equation: Papp=(dQ/dt)/(C0×S), where dQ/dt is the rate of permeation of the drug across the cells, Co is the donor compartment concentration at time zero, and S is the area of the cell monolayer.
Papp(A-B) gives an indication of permeation extent across the cells in this assay, which is envisaged to model the transcellular transport across Pgp-expressing cells, such as Pgp-expressing gastrointestinal tract cells.

Row | Plasma Concentration After p.o. Dosing, Time = 4 h, Mean [1] | MDCK-MDR1 P^eapp(A-B) @ 5 μM [3] | also measured | Compound
1 | 84.5 ng/mL |  | Plasma Concentration After p.o. Dosing, Time = 0.5 h, Mean [1]: 347.0 ng/mL; Plasma Concentration After p.o. Dosing, Time = 2 h, Mean [1]: 69.1 ng/mL; Colon Concentration After p.o. Dosing, Time = 4 h, Mean [1]: 895.0 ng/g | Cc1nc2cnc3[nH]ccc3c2n1[C@H]1CC[C@H](CC#N)CC1 [A]
2 | 11.3 ng/mL |  | Plasma Concentration After p.o. Dosing, Time = 0.5 h, Mean [1]: 352.7 ng/mL; Plasma Concentration After p.o. Dosing, Time = 2 h, Mean [1]: 66.3 ng/mL; Colon Concentration After p.o. Dosing, Time = 4 h, Mean [1]: 6076.7 ng/g | N#CC[C@H]1CC[C@H](n2c(CO)nc3cnc4[nH]ccc4c32)CC1 [B]
3 | 16.7 ng/mL |  | Plasma Concentration After p.o. Dosing, Time = 0.5 h, Mean [1]: 547.0 ng/mL; Plasma Concentration After p.o. Dosing, Time = 2 h, Mean [1]: 130.2 ng/mL; Colon Concentration After p.o. Dosing, Time = 4 h, Mean [1]: 7776.7 ng/g | C[C@@H](O)c1nc2cnc3[nH]ccc3c2n1[C@H]1CC[C@H](CC#N)CC1 [C]
4 |  |  | Plasma Concentration After i.c. Dosing, Time = 2 h, Mean [2]: ^∧; Plasma Concentration After i.c. Dosing, Time = 4 h, Mean [2]: ^∧ | CC(C)(O)CNC(=O)Cc1nc2cnc3[nH]ccc3c2n1[C@H]1CC[C@H](CC#N)CC1 [Ex. 1, 2-(1-((1r,4r)-4-(Cyanomethyl)cyclohexyl)-1,6-dihydroimidazo[4,5-d]pyrrolo[2,3-b]pyridin-2-yl)-N-(2-hydroxy-2-methylpropyl)acetamide]
5 |  | 1.6 10^−6 cm/sec |  | N#CCC1CCC(n2c(-c3c[nH]cn3)nc3cnc4[nH]ccc4c32)CC1 (stereo not shown) [Ex. 2, 2-((1r,4r)-4-(2-(1H-Imidazol-4-yl)imidazo[4,5-d]pyrrolo[2,3-b]pyridin-1(6H)-yl)cyclohexyl)acetonitrile]
6 |  | 2.3 10^−6 cm/sec and 1.6 10^−6 cm/sec | Plasma Concentration After i.c. Dosing, Time = 2 h, Mean [2]: ^∧; Plasma Concentration After i.c. Dosing, Time = 4 h, Mean [2]: ^∧ | N#CC[C@H]1CC[C@H](n2c(CC(=O)NCC3CC3)nc3cnc4[nH]ccc4c32)CC1 [Ex. 3, 2-(1-((1r,4r)-4-(Cyanomethyl)cyclohexyl)-1,6-dihydroimidazo[4,5-d]pyrrolo[2,3-b]pyridin-2-yl)-N-(cyclopropylmethyl)acetamide]
7 |  | 0.5 10^−6 cm/sec | Plasma Concentration After i.c. Dosing, Time = 4 h, Mean [2]: ^∧ | N#CCCNC(=O)Cc1nc2cnc3[nH]ccc3c2n1[C@H]1CC[C@H](CC#N)CC1 [Ex. 4, N-(2-Cyanoethyl)-2-(1-((1r,4r)-4-(cyanomethyl)cyclohexyl)-1,6-dihydroimidazo[4,5-d]pyrrolo[2,3-b]pyridin-2-yl)acetamide]
8 |  | 0.7 10^−6 cm/sec and 0.5 10^−6 cm/sec |  | N#CC[C@H]1CC[C@H](n2c(CC(=O)NC3CCOCC3)nc3cnc4[nH]ccc4c32)CC1 [Ex. 5, 2-(1-((1r,4r)-4-(cyanomethyl)cyclohexyl)-1,6-dihydroimidazo[4,5-d]pyrrolo[2,3-b]pyridin-2-yl)-N-(tetrahydro-2H-pyran-4-yl)acetamide]
9 | 1.7^# ng/mL | 0.9 10^−6 cm/sec and 1.1 10^−6 cm/sec |  | N#CC[C@H]1CC[C@H](n2c(CC(=O)NCC3CCOCC3)nc3cnc4[nH]ccc4c32)CC1 [Ex. 6, 2-(1-((1r,4r)-4-(Cyanomethyl)cyclohexyl)-1,6-dihydroimidazo[4,5-d]pyrrolo[2,3-b]pyridin-2-yl)-N-((tetrahydro-2H-pyran-4-yl)methyl)acetamide]
10 |  | 1.2 10^−6 cm/sec |  | CC(C)(C#N)CNC(=O)Cc1nc2cnc3[nH]ccc3c2n1[C@H]1CC[C@H](CC#N)CC1 [Ex. 7, N-(2-Cyano-2-methylpropyl)-2-(1-((1r,4r)-4-(cyanomethyl)cyclohexyl)-1,6-dihydroimidazo[4,5-d]pyrrolo[2,3-b]pyridin-2-yl)acetamide]
11 |  | 0.5 10^−6 cm/sec |  | N#CC[C@H]1CC[C@H](n2c(CC(=O)NCC3(O)CCC3)nc3cnc4[nH]ccc4c32)CC1 [Ex. 8, 2-(1-((1r,4r)-4-(Cyanomethyl)cyclohexyl)-1,6-dihydroimidazo[4,5-d]pyrrolo[2,3-b]pyridin-2-yl)-N-((1-hydroxycyclobutyl)methyl)acetamide]
12 |  | 0.6 10^−6 cm/sec |  | Cn1cc(NC(=O)Cc2nc3cnc4[nH]ccc4c3n2[C@H]2CC[C@H](CC#N)CC2)cn1 [Ex. 9, 2-(1-((1r,4r)-4-(Cyanomethyl)cyclohexyl)-1,6-dihydroimidazo[4,5-d]pyrrolo[2,3-b]pyridin-2-yl)-N-(1-methyl-1H-pyrazol-4-yl)acetamide]
13 |  | 1.1 10^−6 cm/sec |  | N#CCC12CCC(NC(=O)Cc3nc4cnc5[nH]ccc5c4n3[C@H]3CC[C@H](CC#N)CC3)(CC1)C2 [Ex. 10, N-(4-(Cyanomethyl)bicyclo[2.2.1]heptan-1-yl)-2-(1-((1r,4r)-4-(cyanomethyl)cyclohexyl)-1,6-dihydroimidazo[4,5-d]pyrrolo[2,3-b]pyridin-2-yl)acetamide]
14 | ^∧ | 0.8 10^−6 cm/sec | Plasma Concentration After p.o. Dosing, Time = 2 h, Mean [1]: ^∧ | N#CC[C@H]1CC[C@H](n2c(CC(=O)Nc3cc[nH]n3)nc3cnc4[nH]ccc4c32)CC1 [Ex. 11, 2-(1-((1r,4r)-4-(Cyanomethyl)cyclohexyl)-1,6-dihydroimidazo[4,5-d]pyrrolo[2,3-b]pyridin-2-yl)-N-(1H-pyrazol-3-yl)acetamide]
15 |  | 0.6 10^−6 cm/sec |  | N#CC[C@H]1CC[C@H](n2c(CC(=O)NCC3(O)CC3)nc3cnc4[nH]ccc4c32)CC1 [Ex. 12, 2-(1-((1r,4r)-4-(Cyanomethyl)cyclohexyl)-1,6-dihydroimidazo[4,5-d]pyrrolo[2,3-b]pyridin-2-yl)-N-((1-hydroxycyclopropyl)methyl)acetamide]
